Test results reported in ChEMBL document CHEMBL1201862, “PubChem BioAssay data set” (2004).
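Following 48 hours of exposure in 96-well plates, responses at five concentrations were used to interpolate endpoints linearly. Abbreviation: GI50, concentration required for 50% inhibition of growth.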 Active and inactive are the calls of the source. Rule as the data show it: active = GI50 up to about 1.1 µM and inactive = higher.

Key:
Experiment in all cases: inhibition of tumour cell growth, NCI panel, 48 h
NCI-H460 = tested on: NCI-H460
EKVX = tested on: EKVX
SF-295 = tested on: SF-295
UO-31 = tested on: UO-31
SK-MEL-5 = tested on: SK-MEL-5
OVCAR-8 = tested on: OVCAR-8
MOLT-4 = tested on: MOLT-4
NCI/ADR-RES = tested on: NCI/ADR-RES
DU-145 = tested on: DU-145
UACC-62 = tested on: UACC-62
OVCAR-3 = tested on: OVCAR-3
BT-549 = tested on: BT-549
OVCAR-4 = tested on: OVCAR-4
HCT-116 = tested on: HCT-116
RXF 393 = tested on: RXF 393
SNB-19 = tested on: SNB-19
U-251 = tested on: U-251
IGROV-1 = tested on: IGROV-1
M14 = tested on: M14
HOP-92 = tested on: HOP-92

Compound	GI50 (NCI-H460)	GI50 (EKVX)	GI50 (SF-295)	GI50 (UO-31)	GI50 (SK-MEL-5)	GI50 (OVCAR-8)	GI50 (MOLT-4)	GI50 (NCI/ADR-RES)	GI50 (DU-145)	GI50 (UACC-62)	GI50 (OVCAR-3)	GI50 (BT-549)	GI50 (OVCAR-4)	GI50 (HCT-116)	GI50 (RXF 393)	GI50 (SNB-19)	GI50 (U-251)	GI50 (IGROV-1)	GI50 (M14)	GI50 (HOP-92)
COc1cc(C2C3=C(COC3=O)Oc3cc4c(cc32)OCO4)cc(OC)c1OC(C)=O (centres undefined)	0.0212 µM (active)	0.0435 µM (active)	0.0316 µM (active)	< 0.0124 µM (active)	< 0.01 µM (active)	0.0316 µM (active)	0.0612 µM (active)	< 0.01 µM (active)	0.0381 µM (active)	< 0.01 µM (active)	0.0197 µM (active)	0.0255 µM (active)	29.6 µM (inactive)	0.0207 µM (active)	< 0.01 µM (active)	0.024 µM (active)	0.0388 µM (active)	0.0239 µM (active)	0.0216 µM (active)	
CCCNC1=Nc2ccccc2NC(C)C1 (centres undefined)	> 100 µM (inactive)	> 100 µM (inactive)	> 100 µM (inactive)	> 100 µM (inactive)	> 100 µM (inactive)	> 100 µM (inactive)	> 100 µM (inactive)	> 100 µM (inactive)	> 100 µM (inactive)	> 100 µM (inactive)	> 100 µM (inactive)	> 100 µM (inactive)	> 100 µM (inactive)	> 100 µM (inactive)	> 100 µM (inactive)	> 100 µM (inactive)	> 100 µM (inactive)	> 100 µM (inactive)	> 100 µM (inactive)	
CCN1C(=O)C(C)S/C1=N\NC(=O)CSc1nc2ccccc2c(=O)n1CC (centres undefined)	3.12 µM (inactive)	> 100 µM (inactive)	> 100 µM (inactive)	72.9 µM (inactive)	> 100 µM (inactive)	> 100 µM (inactive)	> 100 µM (inactive)	> 100 µM (inactive)	> 100 µM (inactive)	> 100 µM (inactive)	> 100 µM (inactive)	> 100 µM (inactive)	92 µM (inactive)	> 100 µM (inactive)	> 100 µM (inactive)	> 100 µM (inactive)	> 100 µM (inactive)	> 100 µM (inactive)	> 100 µM (inactive)	
O=C1/C(=C/c2ccccc2[N+](=O)[O-])N=C(c2ccccc2)N1C1Nc2cc3c(cc2S1)NC(N1C(=O)/C(=C/c2ccccc2[N+](=O)[O-])N=C1c1ccccc1)S3 (centres undefined)	5.45 µM (inactive)	27.7 µM (inactive)	63.8 µM (inactive)	24.1 µM (inactive)	42.1 µM (inactive)	39.5 µM (inactive)	19.3 µM (inactive)	25.3 µM (inactive)	30.8 µM (inactive)		37.2 µM (inactive)	40.4 µM (inactive)	53.5 µM (inactive)	16 µM (inactive)	> 100 µM (inactive)		31 µM (inactive)	55.2 µM (inactive)	68.5 µM (inactive)	> 100 µM (inactive)
OC(c1ccccc1)C(F)(F)c1nc2ccccc2o1 (centres undefined)	> 100 µM (inactive)	> 100 µM (inactive)	> 100 µM (inactive)	> 100 µM (inactive)	77.1 µM (inactive)	> 100 µM (inactive)	57.3 µM (inactive)	89.3 µM (inactive)	67.5 µM (inactive)	> 100 µM (inactive)		> 100 µM (inactive)	> 100 µM (inactive)	> 100 µM (inactive)	> 100 µM (inactive)	> 100 µM (inactive)	> 100 µM (inactive)	> 100 µM (inactive)	> 100 µM (inactive)	> 100 µM (inactive)
C[C@]12[C@@H]3CC[C@H]1[C@@H](O)C(=O)N2CC3	> 100 µM (inactive)	> 100 µM (inactive)	> 100 µM (inactive)	> 100 µM (inactive)	> 100 µM (inactive)	> 100 µM (inactive)	> 100 µM (inactive)	> 100 µM (inactive)	> 100 µM (inactive)	> 100 µM (inactive)		> 100 µM (inactive)	> 100 µM (inactive)	> 100 µM (inactive)	> 100 µM (inactive)	> 100 µM (inactive)	> 100 µM (inactive)	> 100 µM (inactive)	> 100 µM (inactive)	> 100 µM (inactive)
COc1ccc(/C=N\N2CC(=O)N3C4C=CC(CC4)N3C2=O)cc1 (centres undefined)	> 100 µM (inactive)	> 100 µM (inactive)	> 100 µM (inactive)	> 100 µM (inactive)	54.7 µM (inactive)	58.1 µM (inactive)	> 100 µM (inactive)	81.8 µM (inactive)	> 100 µM (inactive)	74.8 µM (inactive)	> 100 µM (inactive)	> 100 µM (inactive)		> 100 µM (inactive)		> 100 µM (inactive)	> 100 µM (inactive)	> 100 µM (inactive)	> 100 µM (inactive)	> 100 µM (inactive)
FC(F)(Sc1nc2ccccc2[nH]1)c1nc2ccccc2o1	> 100 µM (inactive)		> 100 µM (inactive)	> 100 µM (inactive)	> 100 µM (inactive)	43.1 µM (inactive)	> 100 µM (inactive)	> 100 µM (inactive)	> 100 µM (inactive)	> 100 µM (inactive)	> 100 µM (inactive)	75.5 µM (inactive)	> 100 µM (inactive)	> 100 µM (inactive)	> 100 µM (inactive)		> 100 µM (inactive)	> 100 µM (inactive)	> 100 µM (inactive)	> 100 µM (inactive)
O=C(O)C(NCc1ccccc1)C(NCc1ccccc1)C(=O)O (centres undefined)	> 100 µM (inactive)	> 100 µM (inactive)	> 100 µM (inactive)	> 100 µM (inactive)	> 100 µM (inactive)	> 100 µM (inactive)	> 100 µM (inactive)	> 100 µM (inactive)	> 100 µM (inactive)	> 100 µM (inactive)	> 100 µM (inactive)	> 100 µM (inactive)	> 100 µM (inactive)	> 100 µM (inactive)		> 100 µM (inactive)	> 100 µM (inactive)	> 100 µM (inactive)	> 100 µM (inactive)	> 100 µM (inactive)
COc1cc(CC(C)=O)cc(OC)c1	> 100 µM (inactive)	67.5 µM (inactive)	91 µM (inactive)	32.6 µM (inactive)	91.2 µM (inactive)	> 100 µM (inactive)	24.7 µM (inactive)	52.4 µM (inactive)	> 100 µM (inactive)	60.3 µM (inactive)	56.5 µM (inactive)	52.5 µM (inactive)	> 100 µM (inactive)	50.6 µM (inactive)		> 100 µM (inactive)	63.5 µM (inactive)	74.1 µM (inactive)	> 100 µM (inactive)	29.9 µM (inactive)
CC1C(=O)OCC2=CCN3CCC(OC(=O)C(C)C1(C)O)C23 (centres undefined)	> 100 µM (inactive)	> 100 µM (inactive)	> 100 µM (inactive)	> 100 µM (inactive)	> 100 µM (inactive)	> 100 µM (inactive)	> 100 µM (inactive)	> 100 µM (inactive)	> 100 µM (inactive)	> 100 µM (inactive)	> 100 µM (inactive)	> 100 µM (inactive)	> 100 µM (inactive)	> 100 µM (inactive)		> 100 µM (inactive)	> 100 µM (inactive)	> 100 µM (inactive)	> 100 µM (inactive)	> 100 µM (inactive)
Clc1ccc(Oc2ccc(/N=C/c3ccc(Cl)cc3Cl)cc2Cl)cc1	63.7 µM (inactive)	30.1 µM (inactive)	39.5 µM (inactive)	21.6 µM (inactive)	36.1 µM (inactive)	41.2 µM (inactive)	21.7 µM (inactive)	25.7 µM (inactive)	64.6 µM (inactive)	37.7 µM (inactive)	33.8 µM (inactive)	29.2 µM (inactive)	44.5 µM (inactive)	33 µM (inactive)		41.6 µM (inactive)	29.4 µM (inactive)	44.8 µM (inactive)	29.4 µM (inactive)	34.2 µM (inactive)
C[C@H]1C(OCCOC2O[C@@H]3O[C@@]4(C)CC[C@H]5[C@H](C)CCC([C@H]2C)[C@@]35O4)O[C@@H]2O[C@@]3(C)CC[C@H]4[C@H](C)CCC1[C@@]24O3 (some centres undefined)	22.6 µM (inactive)				15.3 µM (inactive)	5.3 µM (inactive)	58.6 µM (inactive)	25.1 µM (inactive)	19.5 µM (inactive)	61.2 µM (inactive)	28.1 µM (inactive)	95.7 µM (inactive)	80.5 µM (inactive)	21 µM (inactive)		33.9 µM (inactive)	40.9 µM (inactive)	24.8 µM (inactive)	32.1 µM (inactive)	45.3 µM (inactive)
O=C1CCCC/C1=C\c1ccc([N+](=O)[O-])cc1	35.4 µM (inactive)	39.6 µM (inactive)	18.2 µM (inactive)	19.3 µM (inactive)	27.2 µM (inactive)	19.4 µM (inactive)	5.48 µM (inactive)	19.5 µM (inactive)	39.1 µM (inactive)	16.7 µM (inactive)	27.5 µM (inactive)	23.3 µM (inactive)	22.5 µM (inactive)	12.4 µM (inactive)		17.1 µM (inactive)	16.1 µM (inactive)	17.1 µM (inactive)	18.4 µM (inactive)	19.6 µM (inactive)
O=C1CCC(N2C(=O)c3ccccc3C2=O)C(=O)N1 (centres undefined) [THALIDOMIDE]	> 100 µM (inactive)	> 100 µM (inactive)	> 100 µM (inactive)	> 100 µM (inactive)	> 100 µM (inactive)	> 100 µM (inactive)	> 100 µM (inactive)	> 100 µM (inactive)	> 100 µM (inactive)	> 100 µM (inactive)		> 100 µM (inactive)	> 100 µM (inactive)	> 100 µM (inactive)	> 100 µM (inactive)	> 100 µM (inactive)	> 100 µM (inactive)	> 100 µM (inactive)	> 100 µM (inactive)	> 100 µM (inactive)
